{"source": "patent US20050107386A1", "about": "“Methods of treating diseases and disorders by targeting multiple kinases” (priority 2003, published 2005)", "system": "cancer cell lines: non-small cell lung (NSCLC); colon; pancreatic; head and neck; breast and ovarian cancers", "assay": "Antiproliferative activity against a broad spectrum of cancer cell lines", "assay_type": "cell-based", "settings": "each of the cancer cell line types", "excerpt": "CC001 is a low molecular weight mixed kinase inhibitor (MKI) with potent in vitro inhibitory activity against a variety of kinases."}
{"molecule": "COc1ccc2cc(-c3n[nH]c4ccc(-c5n[nH]c(CN6CCOCC6)n5)cc34)ccc2c1", "note": "[CC001, 3-(6-Methoxynaphthalen-2-yl)-5-(5-Morpholin-4-Ylmethyl-1H-[1,2,4]Triazol-3-yl)-1H-Indazole]", "values": [{"measurement": "antiproliferative activity, IC50 values", "result": "nanomolar range"}]}
